The source of these data is patent US12576099B2, “Ribose-modified cap analog and use thereof” (Beijing Youcare Kechuang Pharmaceutical Technology Co., Ltd., priority 2024, dated 2026).

Series [1] is described as follows: Characterization of lipid nanoparticles encapsulating Fluc-mRNA prepared from different cap structures. Format: physicochemical. The conditions noted are these: for Particle size: LNP (YK-009/DSPC/cholesterol/DMG-PEG2000) with Fluc-mRNA transcribed using the named cap analog; for PDI: LNP with Fluc-mRNA transcribed using the named cap analog; for EE: encapsulation efficiency of LNP with Fluc-mRNA transcribed using the named cap analog. How it is done: Cationic lipid YK-009 (Beijing Youcare Kechuang Pharmaceutical Technology Co., Ltd.), DSPC (AVT (Shanghai) Pharmaceutical Technology Co., Ltd.), cholesterol (AVT (Shanghai) Pharmaceutical Technology Co., Ltd.), and DMG-PEG2000 were dissolved in ethanol at a molar ratio of 49:10:39.5:1.5, and the mRNA was diluted in 50 mM citrate buffer (pH=4). The ethanol lipid solution was mixed with the Fluc-mRNA aqueous solution prepared from different cap structures at a volume ratio of 1:3 using a microfluidic device at a flow rate of 10 mL/min to prepare LNPs at a weight ratio of total lipid to mRNA of approximately 15:1.
The resulting liposomes were diluted to 10-fold volume with PBS, and then ultrafiltered with a 300 KDa ultrafiltration tube to remove ethanol. The volume was then fixed to a certain volume with PBS. Finally, the LNPs were filtered through a 0.2 μm sterile filter to obtain an LNP preparation encapsulating Fluc-mRNA using YK-009/DSPC/cholesterol/DMG-PEG2000 (at a molar ratio of 49:10:39.5:1.5).
The particle size and polydispersity index (PDI) were determined by dynamic light scattering using a Malvern laser particle size analyzer. 10 μL of the liposome solution was taken, diluted to 1 mL with RNase-free deionized water, and added to a sample pool. Each sample was measured in triplicate. The measurement conditions were: a scattering angle of 90° and a temperature of 25° C. The encapsulation efficiency of LNPs was determined using the Quant-iT RiboGreen RNA Quantification Kit (Thermo Fisher Scientific, UK) according to the manufacturer's instructions.

Series [2] relates to BALB/C mice. Nature of the series: In vivo imaging of Fluc-mRNA LNP expression in mice. How it is done: The LNP preparation containing 5 μg of cap analog-transcribed Fluc-mRNA was intramuscularly injected into female BALB/C mice aged 4 to 6 weeks and weighing 17 to 19 g. At specific time points after administration (6 hours, 12 hours, 24 hours, 48 hours, 96 hours, and 168 hours), the mice were intraperitoneally injected with fluorescence imaging substrate. The mice were then allowed to move freely for 5 minutes, followed by detection of the total radiation intensity of the protein expressed by LNP-carrying mRNA in the mice using an IVIS Spectrum small-animal in vivo imaging system (corresponding to the amount of protein expression).
In the in vivo imaging experiments in mice, the multiple of the total radiation intensity for each group of mice relative to the m6A group is shown in Table 8 (where the total radiation intensity is represented as the given value×10^8 p/s).

The test system of series [3] is HEK293T cells. Nature of the series: Translation efficiency of different capped luciferase mRNAs. Format: cell-based. To be noted: for Relative fluorescence intensity: HEK293T, 0.5 μg mRNA per well, 24 hours, proportional to translation efficiency; for Multiple of m6A (relative fluorescence intensity): relative to m6A. How it is done: • (1) HEK293T cells were cultured in DMEM medium containing 10% FBS and penicillin/streptomycin at 37° C. with 5% CO2. • (2)Cells in the culture dish were digested and counted, then spread in a 96-well plate at 10,000 cells per well, and cultured overnight until the cells adhered to the wall. • (3) When the cell density reached approximately 80%, transfection was performed by adding 0.5 μg of mRNA sample and Lipofectamine MessengerMAX Transfection Reagent (Invitrogen) per well according to the manufacturer's instructions. • (4) After the transfected cells were cultured at 37° C. with 5% CO2 for 24 hours, the growth medium was removed from the cells to be tested, and the cells were rinsed with PBS. After centrifugation to remove PBS, 50 μL of 1× lysis buffer was added. The cells and all liquid were transferred to a microcentrifuge tube and centrifuged. • (5) 20 μL of sample was taken and added to 100 μL of Dual-Lumi™ II Luciferase Assay Reagent pre-equilibrated to room temperature, and mixed appropriately. • (6) The mixture was incubated at room temperature (approximately 25° C.) for 5 minutes to stabilize the luminescence signal. Chemiluminescence was detected using a multifunctional microplate reader with a function for detecting chemiluminescence, and the data were recorded.
The relative fluorescence intensity is proportional to the translation efficiency of mRNA.

Series [4] concerns the target T1, DCP2 enzyme (Schizosaccharomyces pombe, UniProt O13828).
T1 construct: purchased New England Biolabs
T1 sequence (O13828 1-243 limits assumed): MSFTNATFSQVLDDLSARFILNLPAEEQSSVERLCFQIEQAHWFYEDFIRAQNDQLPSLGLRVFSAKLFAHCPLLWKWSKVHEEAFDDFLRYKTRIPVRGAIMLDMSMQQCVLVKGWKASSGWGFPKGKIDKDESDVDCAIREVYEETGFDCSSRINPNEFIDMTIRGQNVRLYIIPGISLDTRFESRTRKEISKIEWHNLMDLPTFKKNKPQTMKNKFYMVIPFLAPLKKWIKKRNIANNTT
T1 sequence (Q9P805 1-127 partner): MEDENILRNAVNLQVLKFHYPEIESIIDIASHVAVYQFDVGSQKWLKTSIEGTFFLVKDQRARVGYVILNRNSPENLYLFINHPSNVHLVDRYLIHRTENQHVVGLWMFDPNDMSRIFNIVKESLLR
T1 sequence (Q10108 155-180 partner limits assumed): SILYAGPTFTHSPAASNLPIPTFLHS
The series is described as follows: Decapping enzyme stability test. To be noted: for Decapping rate (%) of DCP2 enzyme: 50 U mRNA decapping enzyme, 37° C., 45 minutes. Format: biochemical. How it is done: […] of RNA purified by polyacrylamide gel electrophoresis (PAGE) was subjected to an enzymatic reaction with 50 U of mRNA decapping enzyme (New England Biolabs) and 1×MDE buffer at 37° C. for 45 minutes. The enzymatic reactants were subjected to PAGE and stained with SYBR Green II (Lonza), followed by observation of the post-electrophoresis gel image on a Typhoon FLA 7000 (GE Healthcare) instrument. The electrophoresis band intensity ratio of RNA capping to RNA decapping was counted using ImageQuant (GE Healthcare) software, and the decapping rate of the decapping enzyme was calculated.

[5] abbreviates: 6 h, 5 μg Fluc-mRNA LNP intramuscular, mice.
[6] abbreviates: 12 h, 5 μg Fluc-mRNA LNP intramuscular, mice.
The mark [7] stands for this setting: 24 h, 5 μg Fluc-mRNA LNP intramuscular, mice.
[8] abbreviates: 48 h, 5 μg Fluc-mRNA LNP intramuscular, mice.
Where [9] appears, read: 96 h, 5 μg Fluc-mRNA LNP intramuscular, mice.
[10] abbreviates: 168 h, 5 μg Fluc-mRNA LNP intramuscular, mice.

Turning to `CNc1ncnc2c1ncn2[C@@H]1O[C@H](COP(=O)(O)OP(=O)(O)OP(=O)(O)OC[C@H]2O[C@@H]([n+]3cn(C)c4c(=O)[nH]c(N)nc43)[C@H](O)[C@@H]2O)[C@@H](OP(=O)(O)OC[C@H]2O[C@@H](n3cnc4c(=O)[nH]c(N)nc43)[C@H](O)[C@@H]2O)[C@H]1OC` [m6A, reference compound], the Particle size in series [1] is 75.76 nm. Also, the PDI in series [1] stood at 0.047. In series [1], this compound returned an EE of 93.8%. The “Multiple of total radiation intensity relative to m6A” value in series [2] (6 h), in series [2] (12 h), in series [2] (24 h), in series [2] (48 h) and in series [2] (96 h) was 1.0 throughout. The Total radiation intensity in series [2] (setting [5]) is reported as 2.35 ×108 p/s; in series [2] (setting [6]), 2.12 ×108 p/s; in series [2] (setting [7]), 0.66 ×108 p/s; in series [2] (setting [8]), 0.52 ×108 p/s; in series [2] (setting [9]) it was 0.08 ×108 p/s; in series [2] (setting [10]), 0.02 ×108 p/s. Besides, the Total radiation intensity was 2.12 ×10^8 p/s in series [2] (at 12 hours) and 0.52 ×10^8 p/s in series [2] (at 48 hours). The same compound had a Relative fluorescence intensity in series [3] of 0.38. In series [3], the “Multiple of m6A (relative fluorescence intensity)” value stood at 1.0. In addition, the “Decapping rate (%) of DCP2 enzyme” value in series [4] amounted to 33.8%. The “Decrease relative to N-7113 (decapping rate)” value in series [4] was 10.0%.
In series [1], `COC[C@H]1[C@@H](O)[C@H]([n+]2cn(C)c3c(=O)[nH]c(N)nc32)O[C@@H]1COP(=O)(O)OP(=O)(O)OP(=O)(O)OC[C@H]1O[C@@H](n2cnc3c(N)ncnc32)[C@H](OC)[C@@H]1OP(=O)(O)OC[C@H]1O[C@@H](n2cnc3c(=O)[nH]c(N)nc32)[C@H](O)[C@@H]1O` [HN3002, reference compound] yielded a Particle size of 75.35 nm, a PDI of 0.058 and an EE of 95.1%. Moreover, the “Multiple of m6A (relative fluorescence intensity)” value in series [3] is recorded as 3.0. In series [4], the “Decapping rate (%) of DCP2 enzyme” value came to 23.3% and the “Decrease relative to N-7113 (decapping rate)” value is recorded as 20.5%.
On to `CCO[C@@H]1[C@H](OP(=O)(O)OC[C@H]2O[C@@H](n3cnc4c(=O)[nH]c(N)nc43)[C@H](O)[C@@H]2O)[C@@H](COP(=O)(O)OP(=O)(O)OP(=O)(O)OC[C@H]2O[C@@H]([n+]3cn(C)c4c(=O)[nH]c(N)nc43)[C@H](O)[C@@H]2O)O[C@H]1n1cnc2c(N)ncnc21` [CAP-2′O-ethyl, reference compound], for which the Particle size in series [1] is recorded as 81.34 nm. In addition, the PDI in series [1] is on record as 0.035. Also, in series [1], the EE amounted to 96.3%. Further, the “Multiple of total radiation intensity relative to m6A” value in series [2] (6 h) was 2.3; in series [2] (12 h), 2.3; in series [2] (24 h) it was 2.6; in series [2] (48 h), 1.1; in series [2] (96 h), 2.4. Also, the Total radiation intensity in series [2] (setting [5]) was 5.41 ×108 p/s; in series [2] (setting [6]), 4.80 ×108 p/s; in series [2] (setting [7]), 1.73 ×108 p/s; in series [2] (setting [8]), 0.57 ×108 p/s; in series [2] (setting [9]), 0.09 ×108 p/s; in series [2] (setting [10]), 0.02 ×108 p/s. Moreover, the Relative fluorescence intensity in series [3] turned out to be 1.13. In series [3], the “Multiple of m6A (relative fluorescence intensity)” value was determined as 3.0. Further, in series [4], the “Decapping rate (%) of DCP2 enzyme” value was 28.3%. Further, the “Decrease relative to N-7113 (decapping rate)” value in series [4] turned out to be 15.5%.
Consider `CO[C@@H]1[C@H](OP(=O)(O)OC[C@H]2O[C@@H](n3cnc4c(=O)[nH]c(N)nc43)[C@H](O)[C@@H]2O)[C@@H](COP(=O)(O)OP(=O)(O)OP(=O)(O)OC[C@H]2O[C@@H]([n+]3cn(C)c4c(=O)[nH]c(N)nc43)[C@H](O)[C@@H]2O)O[C@H]1n1cnc2c(N)ncnc21` [N-7113, reference compound], for which, in series [1], the Particle size turned out to be 87.45 nm. Besides, in series [1], the PDI came out at 0.078. Also, the EE in series [1] turned out to be 96.1%. The “Multiple of total radiation intensity relative to m6A” value in series [2] (6 h) was 2.2; in series [2] (12 h) it was 2.0; in series [2] (24 h), 2.3; in series [2] (48 h) it was 0.9; in series [2] (96 h) it was 2.4. Also, the Total radiation intensity in series [2] (setting [5]) is given as 5.10 ×108 p/s; in series [2] (setting [6]), 4.33 ×108 p/s; in series [2] (setting [7]), 1.49 ×108 p/s; in series [2] (setting [8]), 0.49 ×108 p/s; in series [2] (setting [9]), 0.05 ×108 p/s; in series [2] (setting [10]), 0.02 ×108 p/s. Also, the Total radiation intensity is given as 4.33 ×10^8 p/s in series [2] (at 12 hours) and 0.49 ×10^8 p/s in series [2] (at 48 hours). In series [3], this compound showed a Relative fluorescence intensity of 1.00. The “Multiple of m6A (relative fluorescence intensity)” value in series [3] is recorded as 2.6. In addition, in series [4], the “Decapping rate (%) of DCP2 enzyme” value was found to be 43.8%. For the same compound, the “Decrease relative to N-7113 (decapping rate)” value in series [4] was found to be 0.0%.
